Reference: patent US12398140B2, “Substituted pyrrolo [2,3-d]pyrimidines for treating familial dysautonomia” (PTC THERAPEUTICS, INC., priority 2019, dated 2025)
Where a name gives a salt, the structure may show the parent alone.

These compounds were tested on Elongator complex protein 1 (ELPI, also referred to as IKBKAP) (assay: IKBKAP-HTRF assay (IKBKAP protein in lysates of FD patient-derived fibroblasts)). Conditions: FD patient-derived fibroblasts GM04589, 48 hours, 7-point concentration curve.
Assay type: cell-based, human
In short: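 FD patient-derived fibroblasts (10,000/well) treated 48 h at 37 °C with compound across a 7-point 3.16-fold series, in triplicate; lysates assayed by sandwich HTRF with two anti-IKAP antibodies, overnight at 4 °C, 665/620 nm read. MFI = ΔF over vehicle; EC2x = concentration doubling IKBKAP protein versus DMSO.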
`Cc1c(C[C@H](C)N)[nH]c2nc(Cl)nc(NCc3ccco3)c12.Cl` [Cpd 33, 6-[(2S)-2-aminopropyl]-2-chloro-N-[(furan-2-yl)methyl]-5-methyl-7H-pyrrolo[2,3-d]pyrimidin-4-amine hydrochloride] was tested, and the “EC2x for IKBKAP protein expression (concentration producing two times the amount of IKBKAP protein vs DMSO vehicle control)” value was “***** (≤0.005 μM is indicated by five stars (*****))” and the “MFI (maximum fold increase in IKBKAP protein abundance relative to the vehicle control)” value was “***** (>4.9 is indicated by five stars (*****))”.
With `CC(C)[C@H](N)Cc1[nH]c2nc(Cl)nc(NCc3ccncc3)c2c1F.Cl.Cl` [Cpd 15, 6-[(2R)-2-amino-3-methylbutyl]-2-chloro-5-fluoro-N-[(pyridin-4-yl)methyl]-7H-pyrrolo[2,3-d]pyrimidin-4-amine dihydrochloride] the “EC2x for IKBKAP protein expression (concentration producing two times the amount of IKBKAP protein vs DMSO vehicle control)” value was “*** (between >0.02 μM and ≤0.5 μM is indicated by three stars (***))” and the “MFI (maximum fold increase in IKBKAP protein abundance relative to the vehicle control)” value was “**** (between >3.9 and ≤4.9 is indicated by four stars (****))”.
With `C[C@H](N)Cc1[nH]c2nc(Cl)nc(NCc3nccs3)c2c1F.Cl` [Cpd 36, 6-[(2S)-2-aminopropyl]-2-chloro-5-fluoro-N-[(1,3-thiazol-2-yl)methyl]-7H-pyrrolo[2,3-d]pyrimidin-4-amine hydrochloride] the “EC2x for IKBKAP protein expression (concentration producing two times the amount of IKBKAP protein vs DMSO vehicle control)” value was “**** (between >0.005 μM and ≤0.02 μM is indicated by four stars (****))” and the “MFI (maximum fold increase in IKBKAP protein abundance relative to the vehicle control)” value was “***** (>4.9 is indicated by five stars (*****))”.
With `C[C@H](N)Cc1cc2c(NCc3ccoc3)nc(Cl)nc2[nH]1.Cl` [Cpd 30, 6-[(2S)-2-aminopropyl]-2-chloro-N-[(furan-3-yl)methyl]-7H-pyrrolo[2,3-d]pyrimidin-4-amine hydrochloride] the “EC2x for IKBKAP protein expression (concentration producing two times the amount of IKBKAP protein vs DMSO vehicle control)” value was “*** (between >0.02 μM and ≤0.5 μM is indicated by three stars (***))” and the “MFI (maximum fold increase in IKBKAP protein abundance relative to the vehicle control)” value was “***** (>4.9 is indicated by five stars (*****))”.
`C[C@H](N)Cc1cc2c(NCc3ncco3)nc(Cl)nc2[nH]1.Cl` [Cpd 27, 6-[(2S)-2-aminopropyl]-2-chloro-N-[(1,3-oxazol-2-yl)methyl]-7H-pyrrolo[2,3-d]pyrimidin-4-amine hydrochloride] was tested, and the “EC2x for IKBKAP protein expression (concentration producing two times the amount of IKBKAP protein vs DMSO vehicle control)” value was “*** (between >0.02 μM and ≤0.5 μM is indicated by three stars (***))” and the “MFI (maximum fold increase in IKBKAP protein abundance relative to the vehicle control)” value was “***** (>4.9 is indicated by five stars (*****))”.
For `C[C@H](N)Cc1cc2c(NCc3ccncc3)nc(Cl)nc2[nH]1` [Cpd 20, 6-[(2S)-2-aminopropyl]-2-chloro-N-[(pyridin-4-yl)methyl]-7H-pyrrolo[2,3-d]pyrimidin-4-amine], the “EC2x for IKBKAP protein expression (concentration producing two times the amount of IKBKAP protein vs DMSO vehicle control)” value was “*** (between >0.02 μM and ≤0.5 μM is indicated by three stars (***))” and the “MFI (maximum fold increase in IKBKAP protein abundance relative to the vehicle control)” value was “***** (>4.9 is indicated by five stars (*****))”.
For `C[C@H](N)Cc1c(F)c2c(NCc3ccncc3)nc(Cl)nc2n1C.Cl.Cl` [Cpd 43, 6-[(2S)-2-aminopropyl]-2-chloro-5-fluoro-7-methyl-N-[(pyridin-4-yl)methyl]-7H-pyrrolo[2,3-d]pyrimidin-4-amine dihydrochloride], the “EC2x for IKBKAP protein expression (concentration producing two times the amount of IKBKAP protein vs DMSO vehicle control)” value was “*** (between >0.02 μM and ≤0.5 μM is indicated by three stars (***))” and the “MFI (maximum fold increase in IKBKAP protein abundance relative to the vehicle control)” value was “***** (>4.9 is indicated by five stars (*****))”.
For `C[C@H](N)Cc1[nH]c2nc(Cl)nc(NCc3ccco3)c2c1F.Cl` [Cpd 10, 6-[(2S)-2-aminopropyl]-2-chloro-5-fluoro-N-[(furan-2-yl)methyl]-7H-pyrrolo[2,3-d]pyrimidin-4-amine hydrochloride], the “EC2x for IKBKAP protein expression (concentration producing two times the amount of IKBKAP protein vs DMSO vehicle control)” value was “**** (between >0.005 μM and ≤0.02 μM is indicated by four stars (****))” and the “MFI (maximum fold increase in IKBKAP protein abundance relative to the vehicle control)” value was “***** (>4.9 is indicated by five stars (*****))”.
With `C[C@H](N)Cc1[nH]c2nc(Cl)nc(NCc3ccco3)c2c1Br.Cl` [Cpd 19, 6-[(2S)-2-aminopropyl]-5-bromo-2-chloro-N-[(furan-2-yl)methyl]-7H-pyrrolo[2,3-d]pyrimidin-4-amine hydrochloride] the “EC2x for IKBKAP protein expression (concentration producing two times the amount of IKBKAP protein vs DMSO vehicle control)” value was “**** (between >0.005 μM and ≤0.02 μM is indicated by four stars (****))” and the “MFI (maximum fold increase in IKBKAP protein abundance relative to the vehicle control)” value was “**** (between >3.9 and ≤4.9 is indicated by four stars (****))”.
With `Cc1nc(NCc2ccco2)c2c(F)c(C[C@H](C)N)[nH]c2n1.Cl` [Cpd 34, 6-[(2S)-2-aminopropyl]-5-fluoro-N-[(furan-2-yl)methyl]-2-methyl-7H-pyrrolo[2,3-d]pyrimidin-4-amine hydrochloride] the “EC2x for IKBKAP protein expression (concentration producing two times the amount of IKBKAP protein vs DMSO vehicle control)” value was “*** (between >0.02 μM and ≤0.5 μM is indicated by three stars (***))” and the “MFI (maximum fold increase in IKBKAP protein abundance relative to the vehicle control)” value was “***** (>4.9 is indicated by five stars (*****))”.
`[2H]C([2H])([2H])NCCc1cc2c(NCc3ccco3)nc(Cl)nc2[nH]1` [Cpd 9, 2-chloro-N-[(furan-2-yl)methyl]-6-{2-[(^2H3)methylamino]ethyl}-7H-pyrrolo[2,3-d]pyrimidin-4-amine hydrochloride] was tested, and the “EC2x for IKBKAP protein expression (concentration producing two times the amount of IKBKAP protein vs DMSO vehicle control)” value was “*** (between >0.02 μM and ≤0.5 μM is indicated by three stars (***))” and the “MFI (maximum fold increase in IKBKAP protein abundance relative to the vehicle control)” value was “**** (between >3.9 and ≤4.9 is indicated by four stars (****))”.
